Experimental data published in ChEMBL document CHEMBL5058648, “Data for DCP probe SAFit2” (2022).

Tests used:
[1] = biological target: T1, Histamine H4 receptor (Homo sapiens, UniProt Q9H3N8); details: Compound concentration 10.0 uM
[2] = biological target: 5-hydroxytryptamine receptor 1A (Homo sapiens) (UniProt P08908); details: Compound concentration 10.0 uM
[3] = biological target: D(1A) dopamine receptor (Homo sapiens) (UniProt P21728); details: Compound concentration 10.0 uM
[4] = biological target: Beta-3 adrenergic receptor (Homo sapiens) (UniProt P13945); details: Compound concentration 10.0 uM
[5] = biological target: Alpha-2B adrenergic receptor (Homo sapiens) (UniProt P18089); details: Compound concentration 10.0 uM
[6] = biological target: T2, Sigma non-opioid intracellular receptor 1 (Homo sapiens, UniProt Q99720); assay: GPCRScan assay: inhibition of Sigma 1; set-up: radioligand conc. used [nm] 4.0 – 5.0, parental cells HEKT
T2 sequence (Q99720 whole entry): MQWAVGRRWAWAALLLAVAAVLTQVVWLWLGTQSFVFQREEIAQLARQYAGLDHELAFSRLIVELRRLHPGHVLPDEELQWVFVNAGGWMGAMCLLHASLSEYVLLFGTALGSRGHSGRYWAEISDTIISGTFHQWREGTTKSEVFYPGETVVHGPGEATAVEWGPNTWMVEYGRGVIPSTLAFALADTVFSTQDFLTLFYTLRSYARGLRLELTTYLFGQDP

[7] = biological target: T3, Histamine H2 receptor (Homo sapiens, UniProt P25021); assay: GPCRScan assay: inhibition of H2; set-up: radioligand conc. used [nm] 0.02 – 0.05, parental cells Stable HEK
T3 sequence (P25021 whole entry): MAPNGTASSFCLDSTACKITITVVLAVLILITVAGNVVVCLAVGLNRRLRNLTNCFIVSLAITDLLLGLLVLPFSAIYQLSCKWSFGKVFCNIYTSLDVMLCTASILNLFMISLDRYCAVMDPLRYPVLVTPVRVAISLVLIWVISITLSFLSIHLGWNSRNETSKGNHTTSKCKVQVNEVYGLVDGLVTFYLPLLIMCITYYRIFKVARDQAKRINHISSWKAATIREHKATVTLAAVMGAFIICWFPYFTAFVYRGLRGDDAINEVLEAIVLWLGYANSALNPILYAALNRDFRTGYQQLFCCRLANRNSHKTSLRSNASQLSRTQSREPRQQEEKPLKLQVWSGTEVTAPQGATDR

[8] = biological target: T3, Histamine H2 receptor; details: Compound concentration 10.0 uM
[9] = biological target: Delta-type opioid receptor (Homo sapiens) (UniProt P41143); details: Compound concentration 10.0 uM
[10] = biological target: T4, Sodium-dependent dopamine transporter (Homo sapiens, UniProt Q01959); assay: GPCRScan assay: inhibition of DAT; set-up: radioligand conc. used [nm] 3.6 – 16.0, parental cells stable HEK
T4 sequence (Q01959 whole entry): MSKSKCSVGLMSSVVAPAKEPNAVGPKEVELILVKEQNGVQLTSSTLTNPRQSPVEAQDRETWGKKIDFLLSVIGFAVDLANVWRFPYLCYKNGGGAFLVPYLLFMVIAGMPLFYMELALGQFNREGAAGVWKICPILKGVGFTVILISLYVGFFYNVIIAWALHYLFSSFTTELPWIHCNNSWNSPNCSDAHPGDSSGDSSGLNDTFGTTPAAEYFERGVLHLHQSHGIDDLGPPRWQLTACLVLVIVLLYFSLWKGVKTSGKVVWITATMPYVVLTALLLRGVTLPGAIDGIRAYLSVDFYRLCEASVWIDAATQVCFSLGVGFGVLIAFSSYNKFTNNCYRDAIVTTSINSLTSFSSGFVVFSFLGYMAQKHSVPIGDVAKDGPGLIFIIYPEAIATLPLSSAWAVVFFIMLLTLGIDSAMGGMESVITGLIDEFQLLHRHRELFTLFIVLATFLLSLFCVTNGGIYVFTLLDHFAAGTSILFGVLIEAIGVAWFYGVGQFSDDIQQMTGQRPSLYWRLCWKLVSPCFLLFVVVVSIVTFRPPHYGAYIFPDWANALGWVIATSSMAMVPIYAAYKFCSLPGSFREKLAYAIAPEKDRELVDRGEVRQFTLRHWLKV

[11] = biological target: Histamine H1 receptor (Homo sapiens) (UniProt P35367); details: Compound concentration 10.0 uM
[12] = biological target: Muscarinic acetylcholine receptor M5 (Homo sapiens) (UniProt P08912); details: Compound concentration 10.0 uM
[13] = biological target: D(4) dopamine receptor (Homo sapiens) (UniProt P21917); details: Compound concentration 10.0 uM
[14] = biological target: 5-hydroxytryptamine receptor 7 (Homo sapiens) (UniProt P34969); details: Compound concentration 10.0 uM
[15] = biological target: 5-hydroxytryptamine receptor 3A (Homo sapiens) (UniProt P46098); details: Compound concentration 10.0 uM
[16] = biological target: T5, 5-hydroxytryptamine receptor 1D (Homo sapiens, UniProt P28221); assay: GPCRScan assay: inhibition of 5-HT1D; set-up: radioligand conc. used [nm] 1.0 – 2.0, parental cells HEKT
T5 sequence (P28221 whole entry): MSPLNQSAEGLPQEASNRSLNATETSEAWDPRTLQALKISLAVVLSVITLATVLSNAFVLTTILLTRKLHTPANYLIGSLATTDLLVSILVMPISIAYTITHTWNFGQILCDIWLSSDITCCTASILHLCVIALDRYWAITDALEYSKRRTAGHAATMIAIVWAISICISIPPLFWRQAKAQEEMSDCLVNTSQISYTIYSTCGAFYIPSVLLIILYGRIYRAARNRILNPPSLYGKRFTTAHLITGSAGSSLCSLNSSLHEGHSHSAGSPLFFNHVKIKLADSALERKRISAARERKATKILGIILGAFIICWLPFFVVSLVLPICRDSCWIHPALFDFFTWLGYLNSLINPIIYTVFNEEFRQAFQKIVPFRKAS

[17] = biological target: T2, Sigma non-opioid intracellular receptor 1; details: Compound concentration 10.0 uM
[18] = biological target: T6, Sigma intracellular receptor 2 (Homo sapiens, UniProt Q5BJF2); assay: GPCRScan assay: inhibition of Sigma 2; set-up: radioligand conc. used [nm] 5.0, parental cells HEKT
T6 sequence (Q5BJF2 whole entry): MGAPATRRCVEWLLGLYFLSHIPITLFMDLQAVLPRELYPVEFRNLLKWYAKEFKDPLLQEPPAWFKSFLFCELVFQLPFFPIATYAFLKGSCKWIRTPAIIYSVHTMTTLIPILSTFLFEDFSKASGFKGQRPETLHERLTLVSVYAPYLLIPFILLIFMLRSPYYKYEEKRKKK

[19] = biological target: Kappa-type opioid receptor (Homo sapiens) (UniProt P41145); details: Compound concentration 10.0 uM
[20] = biological target: T7, Sodium-dependent noradrenaline transporter (Homo sapiens, UniProt P23975); details: Compound concentration 10.0 uM
T7 sequence (P23975 whole entry): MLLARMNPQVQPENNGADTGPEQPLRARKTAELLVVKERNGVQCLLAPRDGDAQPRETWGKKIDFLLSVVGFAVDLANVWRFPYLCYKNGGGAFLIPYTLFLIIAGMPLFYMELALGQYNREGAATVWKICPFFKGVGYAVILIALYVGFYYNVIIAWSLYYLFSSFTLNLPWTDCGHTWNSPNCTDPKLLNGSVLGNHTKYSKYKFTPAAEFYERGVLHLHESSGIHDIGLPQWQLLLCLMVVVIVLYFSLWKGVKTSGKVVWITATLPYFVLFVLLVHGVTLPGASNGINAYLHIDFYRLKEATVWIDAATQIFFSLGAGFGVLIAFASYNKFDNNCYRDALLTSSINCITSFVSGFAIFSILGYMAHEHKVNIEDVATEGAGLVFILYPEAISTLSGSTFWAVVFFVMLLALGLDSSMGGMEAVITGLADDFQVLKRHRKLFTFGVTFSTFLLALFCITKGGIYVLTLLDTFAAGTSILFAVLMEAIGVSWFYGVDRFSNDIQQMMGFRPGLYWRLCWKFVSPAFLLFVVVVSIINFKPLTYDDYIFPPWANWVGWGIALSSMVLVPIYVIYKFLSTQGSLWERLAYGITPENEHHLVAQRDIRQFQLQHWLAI

[21] = biological target: Alpha-2C adrenergic receptor (Homo sapiens) (UniProt P18825); details: Compound concentration 10.0 uM
Sequence of Alpha-2C adrenergic receptor (Homo sapiens) (P18825 whole entry): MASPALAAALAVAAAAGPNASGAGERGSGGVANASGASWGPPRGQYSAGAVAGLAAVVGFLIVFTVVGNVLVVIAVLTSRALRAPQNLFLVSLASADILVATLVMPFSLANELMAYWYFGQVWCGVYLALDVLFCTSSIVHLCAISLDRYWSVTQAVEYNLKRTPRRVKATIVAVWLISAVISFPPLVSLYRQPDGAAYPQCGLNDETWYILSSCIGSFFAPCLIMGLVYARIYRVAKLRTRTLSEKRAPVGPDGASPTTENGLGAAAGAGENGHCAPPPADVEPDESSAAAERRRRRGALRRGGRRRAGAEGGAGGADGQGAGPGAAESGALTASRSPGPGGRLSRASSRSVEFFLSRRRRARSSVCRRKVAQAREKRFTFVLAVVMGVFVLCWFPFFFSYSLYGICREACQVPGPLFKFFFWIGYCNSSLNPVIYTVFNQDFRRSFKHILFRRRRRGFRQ

[22] = biological target: T8, D(2) dopamine receptor (Homo sapiens, UniProt P14416); details: Compound concentration 10.0 uM
T8 sequence (P14416 whole entry): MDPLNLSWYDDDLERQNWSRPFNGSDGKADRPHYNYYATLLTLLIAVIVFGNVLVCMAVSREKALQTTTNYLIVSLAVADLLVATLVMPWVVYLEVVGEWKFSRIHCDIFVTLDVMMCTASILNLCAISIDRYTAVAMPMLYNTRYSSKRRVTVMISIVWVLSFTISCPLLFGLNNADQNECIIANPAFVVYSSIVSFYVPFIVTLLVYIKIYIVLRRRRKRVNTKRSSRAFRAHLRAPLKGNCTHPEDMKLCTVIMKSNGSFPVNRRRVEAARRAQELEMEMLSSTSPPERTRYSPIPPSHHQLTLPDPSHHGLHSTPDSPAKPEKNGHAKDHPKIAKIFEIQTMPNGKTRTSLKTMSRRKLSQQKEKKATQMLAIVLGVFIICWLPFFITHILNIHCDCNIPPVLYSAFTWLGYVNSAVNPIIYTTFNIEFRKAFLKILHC

[23] = biological target: T9, GABA-A receptor; anion channel (Rattus norvegicus) (UniProt O09028+P15431+P18506+P18508+P19969+P20236+P23574+P23576+P28471+P28473+P30191+P62813+P63079+P63138+Q91ZM7+Q9ES14); details: Compound concentration 10.0 uM
[24] = biological target: Histamine H3 receptor (Homo sapiens) (UniProt Q9Y5N1); details: Compound concentration 10.0 uM
[25] = biological target: 5-hydroxytryptamine receptor 2A (Homo sapiens) (UniProt P28223); details: Compound concentration 10.0 uM
[26] = biological target: Muscarinic acetylcholine receptor M3 (Homo sapiens) (UniProt P20309); details: Compound concentration 10.0 uM
Sequence of Muscarinic acetylcholine receptor M3 (Homo sapiens) (P20309 whole entry, looked up): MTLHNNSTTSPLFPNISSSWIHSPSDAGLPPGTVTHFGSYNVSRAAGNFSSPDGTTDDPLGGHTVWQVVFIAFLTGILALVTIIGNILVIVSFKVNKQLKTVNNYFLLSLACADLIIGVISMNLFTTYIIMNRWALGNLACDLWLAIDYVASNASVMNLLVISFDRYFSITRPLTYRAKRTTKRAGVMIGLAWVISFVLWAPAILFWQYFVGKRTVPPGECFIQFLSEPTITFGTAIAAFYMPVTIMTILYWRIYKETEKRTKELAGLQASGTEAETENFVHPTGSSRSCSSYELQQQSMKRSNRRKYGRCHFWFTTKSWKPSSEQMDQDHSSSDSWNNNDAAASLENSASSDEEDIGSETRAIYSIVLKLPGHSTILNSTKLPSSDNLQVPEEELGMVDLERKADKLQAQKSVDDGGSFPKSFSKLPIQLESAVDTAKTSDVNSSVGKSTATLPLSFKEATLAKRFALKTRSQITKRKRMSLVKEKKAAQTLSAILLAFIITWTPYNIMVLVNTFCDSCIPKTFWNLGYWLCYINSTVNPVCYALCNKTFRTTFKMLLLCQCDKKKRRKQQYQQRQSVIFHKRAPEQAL

[27] = biological target: Alpha-2A adrenergic receptor (Homo sapiens) (UniProt P08913); details: Compound concentration 10.0 uM
[28] = biological target: T5, 5-hydroxytryptamine receptor 1D; details: Compound concentration 10.0 uM
[29] = biological target: 5-hydroxytryptamine receptor 1E (Homo sapiens) (UniProt P28566); details: Compound concentration 10.0 uM
[30] = biological target: T7, Sodium-dependent noradrenaline transporter; assay: GPCRScan assay: inhibition of NET; set-up: radioligand conc. used [nm] 1.3 – 5.0, parental cells stable HEK
[31] = biological target: Muscarinic acetylcholine receptor M4 (Homo sapiens) (UniProt P08173); details: Compound concentration 10.0 uM
[32] = biological target: Mu-type opioid receptor (Homo sapiens) (UniProt P35372); details: Compound concentration 10.0 uM
[33] = biological target: Beta-1 adrenergic receptor (Homo sapiens) (UniProt P08588); details: Compound concentration 10.0 uM
[34] = biological target: 5-hydroxytryptamine receptor 1B (Homo sapiens) (UniProt P28222); details: Compound concentration 10.0 uM
[35] = biological target: Muscarinic acetylcholine receptor M1 (Homo sapiens) (UniProt P11229); details: Compound concentration 10.0 uM
[36] = biological target: D(1B) dopamine receptor (Homo sapiens) (UniProt P21918); details: Compound concentration 10.0 uM
[37] = biological target: T6, Sigma intracellular receptor 2; details: Compound concentration 10.0 uM
[38] = biological target: T4, Sodium-dependent dopamine transporter; details: Compound concentration 10.0 uM
[39] = biological target: Sodium-dependent serotonin transporter (Homo sapiens) (UniProt P31645); details: Compound concentration 10.0 uM
Sequence of Sodium-dependent serotonin transporter (Homo sapiens) (P31645 whole entry, looked up): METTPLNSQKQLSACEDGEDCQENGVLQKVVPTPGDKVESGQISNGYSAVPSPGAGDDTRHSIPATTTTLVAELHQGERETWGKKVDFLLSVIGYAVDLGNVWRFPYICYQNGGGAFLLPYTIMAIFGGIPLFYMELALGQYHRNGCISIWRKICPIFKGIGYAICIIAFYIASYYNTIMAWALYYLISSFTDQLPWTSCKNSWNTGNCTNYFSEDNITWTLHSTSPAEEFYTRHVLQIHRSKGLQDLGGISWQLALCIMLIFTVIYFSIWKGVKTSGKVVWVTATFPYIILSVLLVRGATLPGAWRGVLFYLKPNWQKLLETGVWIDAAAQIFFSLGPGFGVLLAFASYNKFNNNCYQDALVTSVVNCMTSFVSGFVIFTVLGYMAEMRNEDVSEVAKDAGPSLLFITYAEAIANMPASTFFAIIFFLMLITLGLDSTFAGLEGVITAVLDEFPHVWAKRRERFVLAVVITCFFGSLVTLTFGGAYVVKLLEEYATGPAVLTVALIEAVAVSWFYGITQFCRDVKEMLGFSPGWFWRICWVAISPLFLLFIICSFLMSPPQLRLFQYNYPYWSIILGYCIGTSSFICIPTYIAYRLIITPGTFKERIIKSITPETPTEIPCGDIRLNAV

[40] = biological target: 5-hydroxytryptamine receptor 2B (Homo sapiens) (UniProt P41595); details: Compound concentration 10.0 uM
[41] = biological target: 5-hydroxytryptamine receptor 5A (Homo sapiens) (UniProt P47898); details: Compound concentration 10.0 uM
[42] = biological target: Alpha-1B adrenergic receptor (Homo sapiens) (UniProt P35368); details: Compound concentration 10.0 uM
[43] = biological target: D(3) dopamine receptor (Homo sapiens) (UniProt P35462); details: Compound concentration 10.0 uM
[44] = biological target: 5-hydroxytryptamine receptor 6 (Homo sapiens) (UniProt P50406); details: Compound concentration 10.0 uM
[45] = biological target: Alpha-1A adrenergic receptor (Homo sapiens) (UniProt P35348); details: Compound concentration 10.0 uM
[46] = biological target: Muscarinic acetylcholine receptor M2 (Homo sapiens) (UniProt P08172); details: Compound concentration 10.0 uM
[47] = biological target: T9, GABA-A receptor; anion channel (Rattus norvegicus); details: Compound concentration 10.0 uM; remark: listed apart in the source
[48] = biological target: Peptidyl-prolyl cis-trans isomerase FKBP3 (Homo sapiens, UniProt Q00688); assay: Competitive fluorescence polarization binding assay (FKBP3)
[49] = biological target: Beta-2 adrenergic receptor (Homo sapiens) (UniProt P07550); details: Compound concentration 10.0 uM
[50] = biological target: 5-hydroxytryptamine receptor 2C (Homo sapiens) (UniProt P28335); details: Compound concentration 10.0 uM
[51] = species: Rattus norvegicus; details: Compound concentration 10.0 uM
[52] = biological target: T8, D(2) dopamine receptor; assay: GPCRScan assay: inhibition of D2; set-up: radioligand conc. used [nm] 0.4 – 1.0, parental cells stable fibroblast
[53] = biological target: 5-hydroxytryptamine receptor 2C (Homo sapiens, UniProt P28335); assay: GPCRScan assay: inhibition of 5-HT2C; set-up: radioligand conc. used [nm] 1.0 – 2.5, parental cells HEK T
[54] = biological target: Peptidyl-prolyl cis-trans isomerase FKBP4 (Homo sapiens, UniProt Q02790); assay: Competitive fluorescence polarization binding assay (FKBP4)
[55] = biological target: T1, Histamine H4 receptor; assay: GPCRScan assay: inhibition of H4; set-up: radioligand conc. used [nm] 1.0 – 5.0, parental cells HEK T
[56] = biological target: Peptidyl-prolyl cis-trans isomerase FKBP2 (Homo sapiens, UniProt P26885); assay: Competitive fluorescence polarization binding assay (FKBP2)

T1 sequence (Q9H3N8 whole entry): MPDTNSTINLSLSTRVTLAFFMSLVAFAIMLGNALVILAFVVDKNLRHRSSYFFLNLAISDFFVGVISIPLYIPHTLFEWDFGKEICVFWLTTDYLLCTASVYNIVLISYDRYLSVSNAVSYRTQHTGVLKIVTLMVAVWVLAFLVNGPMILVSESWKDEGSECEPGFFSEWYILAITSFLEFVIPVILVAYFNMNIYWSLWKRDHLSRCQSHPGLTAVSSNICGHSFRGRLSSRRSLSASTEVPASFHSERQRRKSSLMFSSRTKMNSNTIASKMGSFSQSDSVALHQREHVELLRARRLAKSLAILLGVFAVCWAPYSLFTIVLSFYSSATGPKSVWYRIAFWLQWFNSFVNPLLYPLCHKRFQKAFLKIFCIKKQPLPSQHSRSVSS

COc1ccc(CC[C@@H](OC(=O)[C@H]2CCCCN2C(=O)[C@@H](c2cc(OC)c(OC)c(OC)c2)C2CCCCC2)c2cccc(OCCN3CCOCC3)c2)cc1OC
inhibition [1]: 49.5%
inhibition [2]: 12.2%
inhibition [3]: 19.1%
inhibition [4]: 35.1%
inhibition [5]: 19.7%
Ki [6]: 2850 nM
Ki ([7]; read-out: Ki): 2960 nM
Ki ([7]; read-out: pKi (converted)): 2690 nM
inhibition [8]: 50.7%
inhibition [9]: 4.39%
Ki ([10]; read-out: Ki): 2180 nM
Ki ([10]; read-out: pKi (converted)): 2190 nM
inhibition [11]: 14.2%
inhibition [12]: -1.68%
inhibition [13]: 9.71%
inhibition [14]: -3.87%
inhibition [15]: 0.13%
Ki ([16]; read-out: Ki): 3130 nM
Ki ([16]; read-out: pKi (converted)): 3090 nM
inhibition [17]: 58.1%
Ki [18]: 409 nM
inhibition [19]: 5.75%
inhibition [20]: 52.4%
inhibition [21]: 25.2%
inhibition [22]: 14.7%
inhibition [23]: 20.6%
inhibition [24]: 10.2%
inhibition [25]: 4.4%
inhibition [26]: -3.44%
inhibition [27]: 26.6%
inhibition [28]: 57%
inhibition [29]: 12.6%
Ki [30]: > 10000 nM
pKi [30]: < 5
inhibition [31]: 18%
inhibition [32]: 4.34%
inhibition [33]: -0.58%
inhibition [34]: 30.2%
inhibition [35]: 4.82%
inhibition [36]: 4.07%
inhibition [37]: 98.4%
inhibition [38]: 68.4%
inhibition [39]: -5.1%
inhibition [40]: 19.4%
inhibition [41]: 6.87%
inhibition [42]: -5.8%
inhibition [43]: 28.1%

COc1ccc(CC[C@@H](OC(=O)[C@@H]2CCCCN2C(=O)[C@H](c2cc(OC)c(OC)c(OC)c2)C2CCCCC2)c2cccc(OCCN3CCOCC3)c2)cc1OC
inhibition [1]: 71.8%
inhibition [2]: -0.3%
inhibition [44]: 9.5%
inhibition [3]: 24.3%
inhibition [4]: 37.1%
inhibition [5]: 7.6%
inhibition [45]: 6.7%
inhibition [8]: 30.3%
inhibition [46]: 7%
inhibition [9]: 13.4%
inhibition [47]: 17.2%
inhibition [11]: 37.9%
inhibition [12]: 20.5%
Kd [48]: > 10000 nM (not active)
inhibition [13]: 8.1%
inhibition [49]: 14.5%
inhibition [14]: 3%
inhibition [15]: 7.6%
inhibition [17]: 49.4%
Ki [18]: 226 nM
inhibition [19]: 5.9%
inhibition [20]: 36.9%
inhibition [21]: 49.7%
inhibition [22]: 50%
inhibition [23]: -9.9%
inhibition [50]: 56.1%
inhibition [24]: 12.9%
inhibition [25]: 21.9%
inhibition [26]: 0.4%
inhibition [27]: 23.8%
inhibition [28]: 15.5%
inhibition [31]: 3.4%
inhibition [51]: 3.1%
inhibition [32]: 20.9%
Ki [52]: > 10000 nM
Ki [53]: > 10000 nM
inhibition [33]: -6.5%
inhibition [34]: 0.6%
inhibition [35]: 7.5%
inhibition [36]: 9.2%
Kd [54]: > 50000 nM (not active)
inhibition [37]: 84.9%
inhibition [38]: 41%
Ki [55]: 3380 nM
inhibition [39]: 9.5%
inhibition [40]: 8.5%
inhibition [41]: 25.9%
inhibition [42]: -1.1%
inhibition [43]: 39.7%
Kd [56]: 1050 nM (not active)
